Columns and labels:
[1] = Accelerated oven ageing of polypropylene film: growth of carbonyl index (IR band at 1720 cm^-1); settings: air circulation oven at 140° C.; 0.1% of the weight of the polymer; 100 μm film; extrapolated to zero carbonyl index; absent stabiliser: 2
Protocol: (§1) Accelerated thermal ageing tests are also carried out on polypropylene stabilised by the stabilising compounds of the present invention, and in particular the following tests are carried out:
measurements of the growth of the carbonyl index on polypropylene film containing the stabilising compound and subjected to thermal treatment; and
In the first case, the carbonyl index is evaluated from the IR spectrum for the film, by measuring the band intensity at 1720 cm^-1, and is defined by the relationship: [formula] where Io is the initial band intensity, It is the intensity at time t and S is the film thickness in μm.
The polypropylene film containing the stabilising compound is prepared by dissolving the stabilising compound in benzene and mixing the resultant solution with powdered polypropylene containing no other additive.
The stabilising compound is added in a quantity of 0.1% of the weight of the polymer. The benzene is then removed by evaporation under reduced pressure, and the residual powder is pressed into a film of 100 μm thickness.
The pressing is carried out at a temperature of 160° C. under a pressure of 900 kg/cm^2 for a time of 5 minutes. The film is extracted from the press and is rapidly cooled under running water.
The film prepared in this manner is then subjected to accelerated ageing in an air circulation oven at 140° C.
(§2) The polypropylene used for the tests is the commercial product Moplen® FL 20F of the Montedison Company.
Time of oven treatment (at 140° C.) required for inducing the formation of the IR band at 1720 cm^-1 in polypropylene films without stabilising compound and with stabilising compound.

[2] = Phenoxy radical formation and stability by ESR after reaction of stabilising compound with benzoyl peroxide in toluene; settings: 2% by weight each of compound and benzoyl peroxide in toluene; 70° C. for 24 hours, then at rest to ambient temperature
From the text: In the case of stabilising compounds of phenolic nature, phenolic radicals characterised by long life have to form within the polymer in order for the antioxidant activity of the stabilising compound to take effect, and therefore the formation and stability of radicals of this type, originating from the reaction between the stabilising compounds of the present invention and benzoyl peroxide in toluene, are taken as parameters for evaluating the stabilising action of the stabilising compounds concerned.
In particular, in this test, toluene solutions containing 4% by weight of the stabilising compound are prepared simultaneously with solutions containing the same weight percentage of benzoyl peroxide. A small quantity of the stabilising compound solution is then mixed with an equal quantity of the benzoyl peroxide solution.
After mixing, a solution containing 2% by weight of each component is obtained. 1 ml of the resultant solution is then transferred to an ESR (electronic spin resonance) sample tube where it is degassed and sealed under vacuum. The system obtained in this manner is heated to 70° C. for 24 hours. The radical stability is checked by ESR spectra both during the 24 hour heating period and during the subsequent time, in which the system is left at rest to cool to ambient temperature.

[3] = Melt flow index variation of stabilised polypropylene on repeated extrusion; set-up: unit not given here; settings: ASTM-D1238, 90° C., 2.16 kg/cm^2
Protocol: as §1
measurements of the variation in the melt flow index of the polypropylene containing the stabilising compound and subjected to repeated extrusion.
Finally, the melt flow index variation measurements are carried out on polypropylene powder mixed with the stabilising compound by stirring for 30 minutes in a planetary mixer. The repeated extrusions are carried out in an extruder of 19 mm diameter, of length 25 times its diameter, and provided with a 2 mm nozzle and a screw, the compression ratio being 1:4, the speed being 50 r.p.m. The temperature profile along the extruder is 175° C.; 230° C.; 270° C.; 270° C.
After each extrusion, the filament obtained is cut into granules to be subjected to a new extrusion passage.
At the end of each passage, some of the granules are used for measuring the melt flow index in accordance with ASTM-D1238, operating at 90° C. and at a pressure of 2.16 kg/cm^2.
The melt flow index values after 1, 3, 5 and 7 passages through the extruder are shown for polypropylene stabilised by certain stabilisers according to the present invention in Table 3.
as §2
Melt flow index of polypropylene containing the stabilising compound as a function of the number of successive passages through the extruder.

SMILES | Induction time for the formation of the IR band at 1720 cm^-1 (carbonyl band) in polypropylene films [1] [h] | t 1/2: time required to reduce to one half the ESR signal intensity for the phenoxy radicals [2] [h] | t 1/4: time required to reduce to one quarter the ESR signal intensity for the phenoxy radicals [2] [h] | Melt flow index of polypropylene containing the stabilising compound ([3]; 1 extrusion) | Melt flow index of polypropylene containing the stabilising compound ([3]; 3 extrusions) | Melt flow index of polypropylene containing the stabilising compound ([3]; 5 extrusions) | Melt flow index of polypropylene containing the stabilising compound ([3]; 7 extrusions)
CC(C)(C)c1cc(CCC(=O)Oc2cccc(OC(=O)CCc3cc(C(C)(C)C)c(O)c(C(C)(C)C)c3)c2OC(=O)CCc2cc(C(C)(C)C)c(O)c(C(C)(C)C)c2)cc(C(C)(C)C)c1O [Example 1, benzene-1,2,3-tri[3-(4'-hydroxy-3',5'-di-tert-butylphenyl)propionate]] | 260 | 20 | 100 | – | – | – | –
CC(C)(C)c1cc(CCC(=O)Oc2cc(C(=O)O)cc(OC(=O)CCc3cc(C(C)(C)C)c(O)c(C(C)(C)C)c3)c2OC(=O)CCc2cc(C(C)(C)C)c(O)c(C(C)(C)C)c2)cc(C(C)(C)C)c1O [Example 2, benzene-3,4,5-tri[3-(4'-hydroxy-3',5'-di-tert-butylphenyl)propionate]-1-carboxylic acid] | 160 | – | – | – | – | – | –
CC(C)(C)c1cc(CCC(=O)OCCOc2ccc(OCCOC(=O)CCc3cc(C(C)(C)C)c(O)c(C(C)(C)C)c3)cc2)cc(C(C)(C)C)c1O [Example 3, 1,4-phenylene-bis-(oxyethylidene)-bis-[3-(4'-hydroxy-3',5'-di-tert-butylphenyl)propionate]] | 575 | 24 | 90 | 7.34 | 9.91 | 12.59 | 14.61
CC(C)(C)c1cc(CCC(=O)Nc2ccc(OC(=O)CCc3cc(C(C)(C)C)c(O)c(C(C)(C)C)c3)cc2)cc(C(C)(C)C)c1O [Example 4, phenylene-1-[3-(4'-hydroxy-3',5'-di-tert-butylphenyl)propionate]-4-[3-(4'-hydroxy-3',5'-di-tert-butylphenyl)propionamide]] | – | 15 | 150 | 7.42 | 10.36 | 13.09 | 15.78

From patent US4668725A, “Stabilizing compounds for organic polymers, and stabilized polymer compounds which contain them” (Enichem Sintesi S.p.A., priority 1984, dated 1987)
